According to patent US20080213250A1, “Use of Eph Receptor Inhibitors for the Treatment of Neurodegenerative Diseases” (priority 2004, published 2008):

Assays:
[1] = target: T1, EphB4 (Mus musculus, UniProt P54761); assay: Chemical proteomics pull-down with immobilized compound, LC-MS/MS identification; details: maximum in any chemical proteomics experiment
T1 sequence (P54761 16-987): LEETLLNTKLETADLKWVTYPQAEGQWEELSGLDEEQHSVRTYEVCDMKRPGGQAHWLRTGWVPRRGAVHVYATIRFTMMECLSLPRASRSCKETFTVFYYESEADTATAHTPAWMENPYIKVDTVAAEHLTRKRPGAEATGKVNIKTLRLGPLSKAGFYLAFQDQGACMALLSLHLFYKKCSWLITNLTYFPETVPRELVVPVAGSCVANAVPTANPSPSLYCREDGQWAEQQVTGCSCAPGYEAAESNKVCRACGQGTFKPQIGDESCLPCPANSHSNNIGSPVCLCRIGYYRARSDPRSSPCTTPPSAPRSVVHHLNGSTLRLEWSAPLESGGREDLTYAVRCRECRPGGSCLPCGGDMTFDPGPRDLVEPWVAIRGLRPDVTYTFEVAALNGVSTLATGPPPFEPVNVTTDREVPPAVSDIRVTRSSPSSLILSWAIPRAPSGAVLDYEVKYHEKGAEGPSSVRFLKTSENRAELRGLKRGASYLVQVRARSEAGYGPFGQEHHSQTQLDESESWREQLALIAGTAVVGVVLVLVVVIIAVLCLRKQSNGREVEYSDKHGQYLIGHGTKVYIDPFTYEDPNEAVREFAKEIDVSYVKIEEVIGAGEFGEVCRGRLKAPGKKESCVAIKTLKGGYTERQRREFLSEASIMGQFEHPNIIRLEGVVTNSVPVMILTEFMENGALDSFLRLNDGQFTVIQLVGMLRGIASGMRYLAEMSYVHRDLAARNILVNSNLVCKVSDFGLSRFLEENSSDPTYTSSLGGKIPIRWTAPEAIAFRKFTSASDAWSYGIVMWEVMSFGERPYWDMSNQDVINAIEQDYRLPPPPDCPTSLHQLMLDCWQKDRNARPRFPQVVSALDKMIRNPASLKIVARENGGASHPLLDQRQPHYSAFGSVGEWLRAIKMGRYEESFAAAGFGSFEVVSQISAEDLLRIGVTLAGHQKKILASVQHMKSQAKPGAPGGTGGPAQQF

[2] = target: T2, EphA6 (Mus musculus, UniProt Q62413); assay: as above; details: maximum in any chemical proteomics experiment
T2 sequence (Q62413 23-1035): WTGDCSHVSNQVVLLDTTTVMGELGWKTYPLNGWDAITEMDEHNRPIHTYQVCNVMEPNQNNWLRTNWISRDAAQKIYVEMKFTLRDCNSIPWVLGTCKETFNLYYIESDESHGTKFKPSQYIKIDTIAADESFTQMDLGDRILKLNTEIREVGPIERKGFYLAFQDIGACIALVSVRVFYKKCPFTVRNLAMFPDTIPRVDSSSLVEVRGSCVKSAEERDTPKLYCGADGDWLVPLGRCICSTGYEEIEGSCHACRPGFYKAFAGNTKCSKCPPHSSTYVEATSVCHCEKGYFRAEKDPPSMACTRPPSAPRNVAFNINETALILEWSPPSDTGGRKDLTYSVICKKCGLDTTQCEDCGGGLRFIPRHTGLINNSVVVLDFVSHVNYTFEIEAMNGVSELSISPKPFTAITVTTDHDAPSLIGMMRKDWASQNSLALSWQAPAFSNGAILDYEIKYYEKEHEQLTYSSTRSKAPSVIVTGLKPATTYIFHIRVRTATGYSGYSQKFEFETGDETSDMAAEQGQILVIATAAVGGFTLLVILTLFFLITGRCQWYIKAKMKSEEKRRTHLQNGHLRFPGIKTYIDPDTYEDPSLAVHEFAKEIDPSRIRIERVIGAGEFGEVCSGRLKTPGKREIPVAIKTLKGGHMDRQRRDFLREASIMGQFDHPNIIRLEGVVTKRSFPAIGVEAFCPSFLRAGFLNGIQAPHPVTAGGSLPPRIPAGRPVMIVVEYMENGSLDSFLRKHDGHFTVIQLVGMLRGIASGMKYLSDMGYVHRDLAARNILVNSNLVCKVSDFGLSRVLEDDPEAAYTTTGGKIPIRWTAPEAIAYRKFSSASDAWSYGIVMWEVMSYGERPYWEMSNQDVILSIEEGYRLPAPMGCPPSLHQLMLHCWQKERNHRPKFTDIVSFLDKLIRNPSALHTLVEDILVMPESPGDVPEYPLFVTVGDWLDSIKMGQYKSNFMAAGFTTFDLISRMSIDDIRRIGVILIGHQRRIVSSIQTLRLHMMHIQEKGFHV

[3] = tested on: TAP-tagged Eph kinases; assay: Autophosphorylation of TAP-tagged Eph kinases in cells; type: cell-based; details: in cells (FIG. 2)
Method: Cells are plated in 6-well plates in growth medium (see above). To test potential modulators, preferably inhibitors, of Eph kinase tyrosine phosphorylation, cells are starved in serum-free medium for 4 h. Under these conditions, Eph-TAP kinase is partially constitutively phosphorylated-presumably through autophosphorylation that is commonly associated with over-expression of receptor tyrosine kinases. This feature is exploited to monitor the effect of Eph kinase modulators. Test compounds are diluted (from a stock in DMSO) in serum-free medium and added to cells for indicated times. Cells are chilled on ice and washed with ice-cold PBS. They are then lysed in 300 μl lysis buffer (50 mM Tris-HCl, 1% NP-40, 0.05% SDS, 100 mM NaCl, 1.5 mM MgCl2, 2 mM EDTA, 5% glycerol, pH 7.6) for 20 min at 4 °C and cleared by centrifugation at 16,100×g in a table-top centrifuge for 20 min.
Lysates are subsequently incubated with 20 μl pre-washed rabbit IgG beads (Sigma) for 2 h with constant agitation at 4° C. Beads are finally washed with 1 ml of lysis buffer and immobilized protein complexes are eluted by boiling in 40 μl SDS sample buffer.
Blot membranes are probed with monoclonal antibody 4G10 (Upstate Biotechnology) or with HRP-coupled PAP antibody (see above).

| maximal number of non-redundant peptides identified, EphB4 [1] | maximal number of non-redundant peptides identified, EphA6 [2] | SMILES | inhibition of autophosphorylation of TAP-tagged Eph kinases in cells [3] |
| --- | --- | --- | --- |
| 46 | – | CC(C)[C@H](CO)Nc1nc(Nc2ccc(C(=O)O)c(Cl)c2)c2ncn(C(C)C)c2n1 [Purvalanol B] | – |
| 17 | 7 | CSc1cccc(Nc2ncc3cc(-c4c(Cl)cccc4Cl)c(=O)n(C)c3n2)c1 [PD173955] | potent inhibitors |
